Laboratory results as given in patent US20260138958A1, “SUBSTITUTED N-PHENYLURACILS AND SALTS THEREOF, AND USE THEREOF AS HERBICIDAL ACTIVE SUBSTANCES” (Bayer Aktiengesellschaft, priority 2022, published 2026).

How the values were obtained:
Assay type in all cases: in vivo
[1] = system: crop plants; test: Post-emergence crop plant compatibility, summary statements over several crops; conditions: 5 g or less per hectare, ORYSA, ZEAMX, TRZAS
Description: (§1) Seeds of monocotyledonous and dicotyledonous weeds and crop plants were placed in sandy loam in plastic or wood-fibre pots, covered with soil and cultivated in a greenhouse under controlled growth conditions. 2 to 3 weeks after sowing, the test plants were treated at the one-leaf stage. The compounds of the invention, formulated in the form of wettable powders (WP) or as emulsion concentrates (EC), were then sprayed onto the green parts of the plants as aqueous suspension or emulsion with addition of 0.5% additive at a water application rate of 600 l/ha (converted). After the test plants had been kept in the greenhouse under optimum growth conditions for about 3 weeks, the activity of the preparations was rated visually in comparison to untreated controls. For example, 100% activity=the plants have died, 0% activity=like control plants.
The observed effects on selected crop plants are reported here in comparison to the untreated controls (values in %).

[2] = system: Avena fatura (AVEFA); test: Comparative post-emergence herbicidal action, greenhouse pot test; conditions: Table B3 comparison, application rate 20 g/ha
Description: as §1
Tables B1-B5 below show the effects of inventive compounds (I.7-12, I.7-14, I.7-16) that have been obtained by the test method specified above on various harmful plants at an application rate corresponding to 20 g/ha or lower by comparison with structurally similar compounds known from the literature (“a-27”, “a-29”, disclosed in WO2002/098227).

[3] = system: Zea mays (ZEAMX); test: Post-emergence crop plant compatibility, greenhouse pot test; conditions: Zea mays, in vivo
In short: (§2)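 Crops grown in sandy loam in the greenhouse were sprayed post-emergence at the one-leaf stage, 2–3 weeks after sowing, with WP or EC formulations plus 0.5% additive at 600 l/ha water. Damage was rated visually after about 3 weeks against untreated controls (0% = like control, 100% = dead).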

[4] = system: Triticum aestivum (TRZAS); test: as above; conditions: Triticum aestivum, in vivo
In short: as §2

[5] = system: Oryza sativa (ORYSA); test: as above; conditions: Oryza sativa, in vivo
In short: as §2

[6] = system: Digitaria sanguinalis (DIGSA); test: Post-emergence herbicidal action, greenhouse pot test
In short: (§3)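 Compounds, formulated as wettable powders or emulsion concentrates, were applied to green plant parts at 600 l/ha water with 0.5% additive at the one-leaf stage. Percent activity was estimated visually after roughly 3 weeks, 0% matching untreated controls.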

[7] = system: Echinochloa crus-galli (ECHCG); test: as above; conditions: for pest or weed control at 20 g/ha: Echinochloa crus-galli, 504 h, read-out: Post-emergence effect at 20 g/ha against ECHCG in %; for ECHCG (efficacy in %): Table B2 comparison, application rate 1.25 g/ha
In short: as §3

[8] = system: Alopecurus myosuroides (ALOMY); test: as above; conditions: for pest or weed control at 20 g/ha: Alopecurus myosuroides, 504 h, read-out: Post-emergence effect at 20 g/ha against ALOMY in %; for ALOMY (efficacy in %): Table B1 comparison, application rate 20 g/ha
In short: as §3

[9] = system: Veronica persica (VERPE); test: as above; conditions: for pest or weed control at 5 g/ha / pest or weed control at 20 g/ha: Veronica persica, 504 h; for pest or weed control at 5 g/ha: read-out: Post-emergence effect at 5 g/ha against VERPE in %; for pest or weed control at 20 g/ha: read-out: Post-emergence effect at 20 g/ha against VERPE in %
In short: as §3

[10] = system: Polygonum convolvulus (POLCO); test: as above; conditions: Fallopia convolvulus, 504 h; for pest or weed control at 5 g/ha: read-out: Post-emergence effect at 5 g/ha against POLCO in %; for pest or weed control at 20 g/ha: read-out: Post-emergence effect at 20 g/ha against POLCO in %
In short: as §3

[11] = system: Viola tricolor (VIOTR); test: as above; conditions: for pest or weed control at 20 g/ha: Viola tricolor, 504 h, read-out: Post-emergence effect at 20 g/ha against VIOTR in %
In short: as §3

[12] = system: Abutilon theophrasti (ABUTH); test: as above; conditions: for pest or weed control at 5 g/ha / pest or weed control at 20 g/ha: Abutilon theophrasti, 504 h; for pest or weed control at 5 g/ha: read-out: Post-emergence effect at 5 g/ha against ABUTH in %; for pest or weed control at 20 g/ha: read-out: Post-emergence effect at 20 g/ha against ABUTH in %
In short: as §3

[13] = system: Tripleurospermum inodorum (MATIN); test: as above; conditions: Tripleurospermum inodorum, 504 h, 20 g/ha, read-out: Post-emergence effect at 20 g/ha against MATIN in %
In short: as §3

[14] = system: Pharbitis purpurea (PHBPU); test: as above; conditions: for pest or weed control at 5 g/ha / pest or weed control at 20 g/ha: Ipomoea purpurea, 504 h; for pest or weed control at 5 g/ha: read-out: Post-emergence effect at 5 g/ha against PHBPU in %; for pest or weed control at 20 g/ha: read-out: Post-emergence effect at 20 g/ha against PHBPU in %
In short: as §3

[15] = system: Amaranthus retroflexus (AMARE); test: as above; conditions: Amaranthus retroflexus, 504 h; for pest or weed control at 1.25 g/ha: read-out: Post-emergence effect at 1.25 g/ha against AMARE in %; for pest or weed control at 5 g/ha: read-out: Post-emergence effect at 5 g/ha against AMARE in %; for pest or weed control at 20 g/ha: read-out: Post-emergence effect at 20 g/ha against AMARE in %
In short: as §3

[16] = system: Setaria viridis (SETVI); test: as above; conditions: for pest or weed control at 5 g/ha / pest or weed control at 20 g/ha: Setaria viridis, 504 h; for pest or weed control at 5 g/ha: read-out: Post-emergence effect at 5 g/ha against SETVI in %; for pest or weed control at 20 g/ha: read-out: Post-emergence effect at 20 g/ha against SETVI in %
In short: as §3

[17] = system: harmful plants; test: Post-emergence herbicidal action, summary statements over several weeds; conditions: 20 g or less per hectare, ALOMY, ECHCG, AVEFA, VERPE
Description: as §1

[18] = system: Glycine max (GLXMA); test: Post-emergence crop plant compatibility, greenhouse pot test; conditions: Glycine max, in vivo
In short: as §2

`Cn1c(C(F)(F)F)cc(=O)n(-c2cc(Oc3ccccc3OCC(=O)OCC3CCCC3)c(Cl)cc2F)c1=O` [I.7-12] was tested, and the “compatibility with crop plants by comparison with a-27, a-29 or a generically encompassed structure (WO2002/098227)” value [1] was “distinctly improved compatibility”, the “AVEFA (efficacy in %)” value [2] was 70% and the “Post-emergence effect at 1.25 g/ha against ZEAMX in %” value [3] was 10%. For the same compound, the “Post-emergence effect at 5 g/ha against ZEAMX in %” value [3] was 20%, the “Post-emergence effect at 1.25 g/ha against TRZAS in %” value [4] was 10% and the “Post-emergence effect at 20 g/ha against TRZAS in %” value [4] was 20%. For the same compound, the “Post-emergence effect at 1.25 g/ha against ORYSA in %” value [5] was 0%, the “Post-emergence effect at 5 g/ha against ORYSA in %” value [5] was 20% and the “Post-emergence effect at 1.25 g/ha against DIGSA in %” value ([6]; 1.25 g/ha) was 100%. For the same compound, the “Post-emergence effect at 5 g/ha against DIGSA in %” value ([6]; 5 g/ha) was 100%, the “Post-emergence effect at 20 g/ha against DIGSA in %” value ([6]; 20 g/ha) was 100% and the “Post-emergence effect at 5 g/ha against ECHCG in %” value ([7]; 5 g/ha) was 90%. For the same compound, the pest or weed control at 20 g/ha [7] was 100%, the “ECHCG (efficacy in %)” value [7] was 60% and the pest or weed control at 20 g/ha [8] was 100%. For the same compound, the “ALOMY (efficacy in %)” value [8] was 100%, the “Post-emergence effect at 1.25 g/ha against VERPE in %” value ([9]; 1.25 g/ha) was 90% and the pest or weed control at 5 g/ha [9] was 100%. It also gave a pest or weed control at 20 g/ha [9] of 100%, a pest or weed control at 5 g/ha [10] of 80% and a pest or weed control at 20 g/ha [10] of 100%. The “Post-emergence effect at 1.25 g/ha against VIOTR in %” value ([11]; 1.25 g/ha) was 100%, the “Post-emergence effect at 5 g/ha against VIOTR in %” value ([11]; 5 g/ha) was 100% and the pest or weed control at 20 g/ha [11] was 100%. For the same compound, the “Post-emergence effect at 1.25 g/ha against ABUTH in %” value ([12]; 1.25 g/ha) was 90%, the pest or weed control at 5 g/ha [12] was 100% and the pest or weed control at 20 g/ha [12] was 100%. For the same compound, the pest or weed control at 20 g/ha [13] was 100%, the “Post-emergence effect at 1.25 g/ha against PHBPU in %” value ([14]; 1.25 g/ha) was 80% and the pest or weed control at 5 g/ha [14] was 100%. It also gave a pest or weed control at 20 g/ha [14] of 100%, a pest or weed control at 1.25 g/ha [15] of 100% and a pest or weed control at 5 g/ha [15] of 100%. For the same compound, the pest or weed control at 20 g/ha [15] was 100%, the “Post-emergence effect at 1.25 g/ha against SETVI in %” value ([16]; 1.25 g/ha) was 80% and the pest or weed control at 5 g/ha [16] was 100%. For the same compound, the pest or weed control at 20 g/ha [16] was 100% and the “herbicidal efficacy by comparison with a-27, a-29 or a generically encompassed structure (WO2002/098227)” value [17] was “distinctly improved herbicidal efficacy”.
For `Cn1c(C(F)(F)F)cc(=O)n(-c2cc(Oc3ccccc3OCC(=O)OCC3CC3)c(Br)cc2F)c1=O` [I.8-1, Cyclopropylmethyl (2-{2-bromo-4-fluoro-5-[3-methyl-2,6-dioxo-4-(trifluoromethyl)-3,6-dihydropyrimidin-1(2H)-yl]phenoxy}phenoxy)acetate], the “Post-emergence effect at 1.25 g/ha against ZEAMX in %” value [3] was 0%, the “Post-emergence effect at 1.25 g/ha against TRZAS in %” value [4] was 0% and the “Post-emergence effect at 20 g/ha against TRZAS in %” value [4] was 0%. For the same compound, the “Post-emergence effect at 1.25 g/ha against ORYSA in %” value [5] was 0%, the “Post-emergence effect at 5 g/ha against ORYSA in %” value [5] was 0% and the “Post-emergence effect at 20 g/ha against ORYSA in %” value [5] was 20%. For the same compound, the “Post-emergence effect at 1.25 g/ha against GLXMA in %” value [18] was 0%, the pest or weed control at 20 g/ha [7] was 100% and the pest or weed control at 20 g/ha [8] was 100%. It also gave a pest or weed control at 5 g/ha [9] of 100%, a pest or weed control at 20 g/ha [9] of 100% and a pest or weed control at 5 g/ha [10] of 100%. For the same compound, the pest or weed control at 20 g/ha [10] was 100%, the pest or weed control at 20 g/ha [11] was 100% and the pest or weed control at 5 g/ha [12] was 100%. It also gave a pest or weed control at 20 g/ha [12] of 100%, a pest or weed control at 20 g/ha [13] of 100% and a pest or weed control at 5 g/ha [14] of 80%. It also gave a pest or weed control at 20 g/ha [14] of 100%, a pest or weed control at 1.25 g/ha [15] of 100% and a pest or weed control at 5 g/ha [15] of 100%. It also gave a pest or weed control at 20 g/ha [15] of 100%, a pest or weed control at 5 g/ha [16] of 100% and a pest or weed control at 20 g/ha [16] of 100%.
With `Cn1c(C(F)(F)F)cc(=O)n(-c2cc(Oc3ccccc3OCC(=O)OC3CCCC3)c(Cl)cc2F)c1=O` [a-27, reference compound] the “AVEFA (efficacy in %)” value [2] was 40%, the “ECHCG (efficacy in %)” value [7] was 30% and the “ALOMY (efficacy in %)” value [8] was 80%.
